This is an account of results in publication PMC8058401, “Identification and Characterization of Zika Virus NS5 Methyltransferase Inhibitors” (Frontiers in Cellular and Infection Microbiology, 2021).

Read-outs that look alike come from different tables or passages of the source.

A word on the EC50: it is the concentration at which the effect is half-maximal. What is called CC50 is the concentration giving 50% cytotoxicity. Read a low CC50 as greater toxicity to the cells. What is called IC50 is the concentration at which inhibition is half-maximal. In general, Kd refers to a measure of binding affinity in units of concentration. A lower Kd goes with higher affinity.

One data set concerns ZIKV (SMGC-1). As to the kind of experiment: cell viability assay based on ZIKV-induced cytopathic effect (CPE) in Huh-7 cells. The settings on record: Zika virus, Huh-7, read-out: EC50, protection from ZIKV induced CPE.
Data set [1] has as its system ZIKV. As to conditions: cited from earlier work.
Data set [2] concerns ZIKV. The data set is described as follows: virus yield reduction assay by qRT-PCR in Huh-7 cells. As to conditions: Huh7 cells, 72 hpi; for effect on viral RNA copy numbers: dose dependent.
A short description of the next data set: CCK-8 cytotoxicity assay. As to conditions: human.
Another data set relates to SARS-CoV-2 3CL-protease. Also noted: method as in Jang et al., 2020. The settings on record: dose-dependent; ref Jang et al., 2020; cited from earlier work.
For data set [3], the target named is ZIKV NS5 MTase (WT-MTase) (Zika virus, UniProt A0A024B7W1). As to the kind of experiment: biochemical.
The target of another data set is ZIKV NS5 K105A-MTase (Zika virus, UniProt A0A024B7W1, K2625A). As to the kind of experiment: luminescence-based methyltransferase assay, K105A-MTase.
Another data set concerns the target ZIKV NS5 WT-MTase (Zika virus, UniProt A0A024B7W1). As to the kind of experiment: surface plasmon resonance assay, WT-MTase. It counts as binding. (In general: Surface plasmon resonance follows binding to a sensor surface in real time, without labels.)
A further data set has as its target NS5 MTase of WNV. More on the design: method as in Dong et al., 2008. The settings on record: ref Dong et al., 2008; cited from earlier work.
The test system of the next data set is WNV. Also noted: method as in Dong et al., 2008; Tao et al., 2018. As to conditions: ref Dong et al., 2008; Tao et al., 2018; read-out: EC50, anti-virus activity for WNV; cited from earlier work.
In the next data set the test system is DENV. More on the design: method as in Dong et al., 2008; Tao et al., 2018. As to conditions: ref Dong et al., 2008; Tao et al., 2018; read-out: EC50, anti-virus activity for DENV; cited from earlier work.
Another data set deals with NS5 MTase of DENV. More on the design: method as in Dong et al., 2008. As to conditions: ref Dong et al., 2008; cited from earlier work.

Turning to `CCN(CC)CCCC(C)Nc1ccnc2cc(Cl)ccc12` (stereo not shown) [chloroquine], the EC50 is 2.55 µM in the data set on ZIKV (SMGC-1) and 1 to 5 µM in the data set with ZIKV [1] (ref Li C. et al., 2017, Han et al., 2019, read-out: EC50, ZIKV infection in vitro). For the same compound, in the data set with ZIKV [2], the “effect on viral RNA copy numbers” value is recorded as “significantly reduced viral RNA copy numbers”.
`O=c1c(O)cc([C@H]2Oc3cc(O)cc(O)c3C[C@H]2O)cc2c([C@H]3Oc4cc(O)cc(O)c4C[C@H]3O)cc(O)c(O)c12` [theaflavin] returned a CC50 at 24 h in “CCK-8 cytotoxicity assay” of more than 128 µM. The EC50 in the data set with ZIKV (SMGC-1) was 8.19 µM. Also, the “inhibitory activity toward SARS-CoV-2 by targeting the 3CL-protease” value in the data set on SARS-CoV-2 3CL-protease is listed as “significant inhibitory activity”. Also, the IC50 in data set [3] worked out at 10.1 µM; at ZIKV NS5 K105A-MTase it was 37.8 µM. Besides, the inhibition at 20 µM in data set [3] (at 20 μM, read-out: MTase inhibitory activity in initial screening) is more than 50%. The Kd on ZIKV NS5 WT-MTase came out at 64.4 µM. The “reduction of viral RNA detected in the supernatant” value with ZIKV [2] (20 μM) is “more than 50%”. In addition, the “effect on viral RNA copy numbers” value in the data set with ZIKV [2] is listed as “significantly reduced viral RNA copy numbers”.
For `Nc1ncnc2c1ncn2[C@@H]1O[C@H](C[C@@H](N)CC[C@H](N)C(=O)O)[C@@H](O)[C@H]1O` [sinefungin], the IC50 at NS5 MTase of WNV is approximately 14 µM; in data set [3], 4.03 µM; at NS5 MTase of DENV, approximately 0.63 µM. For the same compound, the EC50 with WNV was 27 µM; with DENV, 77 µM; in the data set with ZIKV [1] (ref Dong et al., 2008, Tao et al., 2018, read-out: EC50, anti-virus activity for ZIKV), more than 50 µM.
For `Cc1cc(N)c2cc(NC(=O)Nc3ccc4nc(C)cc(N)c4c3)ccc2n1` [NSC 12155], in the data set on ZIKV [1] (no reference given), the “inhibitory activity toward ZIKV” value was “no inhibitory activity”.
